Data taken from US8778995B2, “Use of hydroxyoleic acid and related compounds in the manufacture of drugs” (Universitat de les Illies Balears, priority 2001, dated 2014).

Columns and labels:
[1] = Body weight of rats in chronic treatment; format: in vivo; details: seventh day, Sprague-Dowley rat aged 2-3 months
Source text: Rats treated with these molecules lost body weight during chronic treatments (from 5 to 17 days). In these experiments, rats treated with 2-hydroxyoleic acid or its analogs, in particular aminoleic acid, had free access to food and water, in the same way as the control group of treated rats (FIG. 11). In these conditions there was a progressive decrease in the rats' body weight starting from the first day of treatment, up to 17 grams on the seventh day of treatment (5% of the normal body weight of a Sprague-Dowley rat aged 2-3 months). […] Similar experiments carried out on adult mice, for periods of up to 28 days with 2-hydroxyoleic acid, show reductions in body weight from 15% to 25%, relative to control mice (treated with vehicle).
The animals (Sprague-Dowley rats) had free access to food and water at any time.

[2] = system: systolic arterial pressure; assay: Blood pressure in humans; format: in vivo; details: 30 mg/kg, FIG. 9b
Source text: The days prior to treatment are shown with negative values. *P<0.05, **P<0.01.

[3] = system: human lung cancer cells A549; assay: Proliferation (cell density) of A549 tumor cells in culture; format: cell-based; details: FIG. 4A
Source text: (§1) The presence of 2-hydroxyoleic acid and/or its analogs in the cells induces activation of the signal pathway associated with p53, which induces the start of apoptosis or stopping of the cell cycle in various types of tumor cells. With the aim of carrying out the first objective of the present invention, in vitro and in vivo models were used.

[4] = system: human leukemia cells (Jurkat); assay: Degradation of poly-ADP ribose polymerase (PARP) in Jurkat cells; format: cell-based; details: Jurkat cells, 10, 100 and 1000 μM, FIG. 3C
Source text: (§2) Similar effects were produced by all the analogs tested that comply with the general structural formula given earlier. […] This antiproliferative effect was also observed using other techniques and other cell types: in rat primary astrocytes, these fatty acids have an antiproliferative effect, which I studied by incorporating tritiated thymidine. Moreover, hydroxyoleic acid and its analogs are able to induce apoptosis or programmed cell death in human cancer cells. […] Using flow cytometry experiments, it was established that in the presence of 2-hydroxyoleic acid the number of live human leukemia cells (Jurkat) was only 10% of those that remained alive with Etoposide, a known antitumor agent.
Protein p21 inhibits the cell cycle, so it is an antiproliferative protein. […] The decrease in levels of this enzyme, or evidence of its degradation, indicate the start of apoptosis or programmed cell death. In these experiments Etoposide was used as the positive control, as this molecule is known to be an inducer of apoptosis and an antitumor agent.

Gαi2 protein = assay: Cellular localization of fluorescein-labeled Gαi2 protein, confocal microscopy; format: cell-based; details: primary astrocytes of rat brain, FIG. 2
Source text: (§3) This is because these molecules have an influence on the interaction of G-proteins with membranes and therefore on their cellular localization, as is shown in the photographs from confocal microscopy (FIG. 2). The effect of hydroxyoleic acid and its analogs on the localization and activity of G-proteins is not due to a direct interaction on them.
(§4) In this way, inhibition of cell proliferation is achieved, as was confirmed by the appreciable and significant increases in the levels of the protein p21 and the decreases in the cell cycle proteins cdk2 and cyclins B and D3 (FIGS. 3A and B). Moreover, it has been observed that in cells in culture, 2-hydroxyoleic acid and its analogs induce significant increases in protein kinase C (increase of between 40% and 120%).
In control cells, the labeling indicates the presence of this protein throughout the cell, especially in the nucleus (arrow).

purified G-proteins = assay: Activity of purified G-proteins in the absence of membrane; format: biochemical
Source text: as §3
FIG. 6: Hydroxyoleic acid and its analogs had no effect on pure G-proteins (in the absence of membrane).

heart rate = assay: Heart rate during hypotensive treatment; format: in vivo; details: FIGS. 9a, 9b and 10
Protocol: The hypotensive effect produced by 2-hydroxyoleic acid and its analogs is that it induces a reduction in blood pressure of an acute form (which is evident from 2 hours of treatment) and chronic (which is maintained for days and weeks while the treatment is maintained). Aminoleic acid, for example, reduces blood pressure by 15 mmHg in chronic treatments lasting a week. These fatty acids regulate communication between receptor, G-protein and effector. The result is a modulation of the signals of cyclic AMP, phospholipase C and nitric oxide, which gives rise to a reduction in blood pressure. This effect is also connected with regulation of the membrane structure. […] An additional advantage of these compounds is that they control other cardiovascular risk factors: the serum lipid/lipoprotein profile and body weight (see below).

[5] = Temperature of transition from lamellar to hexagonal structure (HII) of DEPE membranes, X-ray diffraction/scattering; details: for TH, lamellar-hexagonal transition of DEPE: phospholipid:analog 20:1 mol:mol, Table 2, control 61
Protocol: The control value (in the absence of 2-hydroxyoleic) is 63° C. […] This important modification of the cell membrane has important consequences for molecular and cellular function. All the analogs of 2-hydroxyoleic tested that have therapeutic activity also induce effects on the membrane structure (Table 2).
Using this technique, we established that the structure of the membrane is altered by 2-hydroxyoleic acid and its analogs. The lowering of the temperature of transition from lamellar to hexagonal structure indicates an important effect on rearrangement of the lipid molecules in the membrane. This regulation of rearrangement forms the basis of the effect exerted by 2-hydroxyoleic acid and its analogs.

[6] = system: cerebral tumor metastases, formed from a lung adenocarcinoma; assay: Brain metastases of lung adenocarcinoma in a patient; format: in vivo, human; details: previous chemotherapy and radiotherapy without effect
Source text: The antitumor efficacy of 2-hydroxyoleic acid and its […] is shown in FIG. 8, in which we can see the disappearance of some cerebral tumor metastases, formed from a lung adenocarcinoma, after treatment with 2-hydroxyoleic acid.
Regulation of the Activity of G-Proteins Controls Blood Pressure.
The image on the left (8a) corresponds to the tumors before treatment and those on the right (8b, 8c and 8d) correspond to the tumors after treatment with 2-hydroxyoleic on various dates.

[7] = system: human lung cancer cells A549; assay: Cell cycle proteins (cdk2, cyclin B, cyclin D3, p21) in A549 cells; format: cell-based
Source text: as §4, §2
Protein p21 inhibits the cell cycle, so it is an antiproliferative protein. […] The decrease in levels of this enzyme, or evidence of its degradation, indicate the start of apoptosis or programmed cell death. […]

[8] = system: Jurkat cells of human leukemia; assay: Proliferation (cell density) of Jurkat tumor cells in culture; format: cell-based; details: FIG. 4B
Source text: as §1

G-proteins = assay: Binding of [35S]GTPγS to membranes of NIH 3T3 cells transfected with the rat adrenoceptor α2A/D (activity of G-proteins); format: biochemical
Source text: Hydroxyoleic acid and related compounds are capable of modulating the activity of G-proteins, measured by the binding of [^35S] GTPγS (FIG. 5).
The analogs of 2-hydroxyoleic produce an effect similar to that of 2-hydroxyoleic acid.

[9] = system: systolic arterial pressure; assay: Blood pressure in Sprague-Dowley rats; format: in vivo; details: for systolic arterial pressure after acute treatment, in words: Sprague-Dowley rats, FIG. 10
Protocol: These reductions were of an acute form (at 2 hours of treatment, 19±6 mmHg, P<0.01, n=6) and of a chronic form (1 week, 26±7 mmHg, P<0.001, n=6).
Lower doses of this molecule (1-10 mg/kg) produced similar effects, but less marked. *P<0.01.

[10] = system: human leukemia cells (Jurkat); assay: Flow cytometry, number of live Jurkat cells; format: cell-based
Source text: as §2

CCCCCCCC/C=C\CCCCCCC(O)C(=O)O (stereo not drawn) [2-hydroxyoleic acid, cis-2-hydroxy-9-octadecenoic acid]
decrease in body weight as share of normal body weight [1]: 5%
blood pressure in humans, in words [2]: significant, large decreases
effect on proliferation of A549 cells [3]: induce stoppage of division and the death of tumor cells
poly-ADP ribose polymerase (PARP) levels [4]: degradation
cellular localization of Gαi2 protein (Gαi2 protein): in membrane and cytosol, but not in the nucleus
influence on the activity of purified G-proteins (purified G-proteins; FIG. 6, listed as Hydroxyoleic acid): no effect
influence on the activity of purified G-proteins (purified G-proteins; FIG. 6, listed as hydroxyoleic): did not have an influence
effect on heart rate (heart rate): without altering the heart rate
TH, temperature of transition from lamellar to hexagonal structure ([5]; DEPE:2OHOA 10:1 mol:mol): 41 °C
TH, temperature of transition from lamellar to hexagonal structure ([5]; DEPE:2OHOA 20:1 mol:mol): 48 °C
TH, temperature of transition from lamellar to hexagonal structure ([5]; DEPE:2OHOA 40:1 mol:mol): 54 °C
effect on brain tumors (metastases) in a patient ([6]; FIG. 8): complete disappearance of the cancer
effect on brain tumors (metastases) in a patient ([6]; FIG. 8, listed as 2-hydroxyoleic): one of the tumors disappeared more quickly and the other one more slowly
cell cycle proteins cdk2, cyclin B and cyclin D3 ([7]; FIG. 3A): decrease
p21 protein ([7]; incubation for 24 and 48 hours, FIG. 3B): large increases
effect on proliferation of Jurkat cells [8]: induce stoppage of division and the death of tumor cells
function of the G-proteins ([35S]GTPγS binding), in words (G-proteins; FIG. 5): decrease in function of the G-proteins even greater than the anthracycline daunomycin
systolic arterial pressure after acute treatment, in words [9]: significant decreases
blood pressure at lower doses, in words ([9]; acute and chronic treatments from 1 mg/kg to 10 mg/kg): significant reductions
reduction of blood pressure, chronic ([9]; rats, 1 week, 3 daily injections of 30 mg/kg): 26±7 mmHg
reduction of blood pressure, acute ([9]; rats, at 2 hours of treatment, 30 mg/kg): 19±6 mmHg
number of live Jurkat cells relative to those that remained alive with Etoposide [10]: 10%

CCCCCCCC/C=C\CCCCCCC(N)C(=O)O (stereo not drawn) [Aminoleic acid, 2-amino-oleic (2-amino-cis-9-octadecenoic)acid]
decrease in body weight as share of normal body weight [1]: 5%
effect on proliferation of A549 cells [3]: induce stoppage of division and the death of tumor cells
TH, lamellar-hexagonal transition of DEPE [5]: 49 °C
effect on proliferation of Jurkat cells [8]: induce stoppage of division and the death of tumor cells
reduction of blood pressure, chronic treatments lasting a week ([9]; species not printed at the place): 15 mmHg

CCCCCCCC/C=C\CCCCCCC(C)C(=O)O (stereo not drawn) [Methyloleic acid, 2-methyl-oleic (2-methyl-cis-9-octadecenoic)acid]
effect on proliferation of A549 cells [3]: induce stoppage of division and the death of tumor cells
TH, lamellar-hexagonal transition of DEPE [5]: 50 °C
effect on proliferation of Jurkat cells [8]: induce stoppage of division and the death of tumor cells
systolic arterial pressure after acute treatment, in words [9]: significant decreases

CCCCCCCC/C=C\CCCCCCCCCCCCCC(=O)O [Nervonic acid, nervonic (cis-15-tetracosenoic)acid]
effect on proliferation of A549 cells [3]: induce stoppage of division and the death of tumor cells
TH, lamellar-hexagonal transition of DEPE [5]: 55 °C
effect on proliferation of Jurkat cells [8]: induce stoppage of division and the death of tumor cells
systolic arterial pressure after acute treatment, in words [9]: significant decreases

CCCCCCCC/C=C\CCCCCCCC(=O)O [Oleic acid, oleic (cis-9-octadecenoic)acid]
effect on proliferation of A549 cells [3]: induce stoppage of division and the death of tumor cells
TH, lamellar-hexagonal transition of DEPE [5]: 45 °C
effect on brain tumors (metastases) in a patient ([6]; FIG. 8): complete disappearance of the cancer
effect on proliferation of Jurkat cells [8]: induce stoppage of division and the death of tumor cells
systolic arterial pressure after acute treatment, in words [9]: significant decreases

CCCCCC/C=C\CCCCCCCCCC(=O)O [cis-Vaccenic acid, cis-vaccenic (cis-11-octadecenoic)acid]
TH, lamellar-hexagonal transition of DEPE [5]: 53 °C
systolic arterial pressure after acute treatment, in words [9]: significant decreases

COc1cccc2c1C(=O)c1c(O)c3c(c(O)c1C2=O)C[C@@](O)(C(C)=O)C[C@@H]3O[C@H]1C[C@H](N)[C@H](O)[C@H](C)O1 [daunomycin, reference compound]
influence on the activity of purified G-proteins (purified G-proteins; FIG. 6): did not have an influence
influence on the activity of purified G-proteins (purified G-proteins; FIG. 6, listed as Daunomycin): behavior similar to the control
inhibition in the activity of G-proteins (G-proteins; 200 μM, membranes of NIH 3T3 cells): 46%

CCCCCC/C=C\CCCCCCCC(=O)O [palmitoleic acid, palmitoleic (cis-9-hexadecenoic)acid]
effect on proliferation of A549 cells [3]: induce stoppage of division and the death of tumor cells
effect on proliferation of Jurkat cells [8]: induce stoppage of division and the death of tumor cells
systolic arterial pressure after acute treatment, in words [9]: significant decreases
